Experimental data as given in paper PMC11579541, “In vitro, in vivo, and in silico approaches for evaluating the preclinical DMPK profiles of ammoxetine, a novel chiral serotonin and norepinephrine reuptake inhibitor” (Frontiers in Pharmacology, 2024).
Several values for one entry are separate records, joined by “and”; a condition that tells them apart may be missing. Equal values may be shown once.

Tests used:
[1] = PPB assay by ultrafiltration, rat plasma; assay type: in vitro ADME, rats
Procedure: (§1) The PPB of ammoxetine was determined using the ultrafiltration method. Triplicate samples of rat, dog, or human plasma were spiked with ammoxetine at three final concentrations (50, 150, and 450 ng/mL). The spiked plasma samples were then incubated in a 37°C air-bath shaker for 1 h until equilibrium was reached. After incubation, 400 μL of the plasma samples were transferred to pre-saturated ultrafiltration devices. These devices were subsequently centrifuged at 13,800×g and 20°C for 20 min to separate the unbound ammoxetine. 100 μL of the test samples were taken and mixed with 100 μL of the IS, L-phencynonate (50 ng/mL), and 300 μL of methanol. Following centrifugation at 13,800×g for 10 min, the supernatants were used to determine the total and free concentrations of ammoxetine in the plasma (C t , C f ) using an LC-MS-MS method. The PPB rate (%) of ammoxetine was calculated by dividing (C t −C f ) by C t .

CYP 2C19 = CYP 2C19 (Homo sapiens, UniProt P33261); test: Phenotyping with recombinant human CYP 2C19; assay type: in vitro ADME; parameters: purchased BD (Woburn, USA); conditions: 5 μmol/L, 25 pmol/mL CYP, 1 h
Sequence of CYP 2C19 (P33261 whole entry): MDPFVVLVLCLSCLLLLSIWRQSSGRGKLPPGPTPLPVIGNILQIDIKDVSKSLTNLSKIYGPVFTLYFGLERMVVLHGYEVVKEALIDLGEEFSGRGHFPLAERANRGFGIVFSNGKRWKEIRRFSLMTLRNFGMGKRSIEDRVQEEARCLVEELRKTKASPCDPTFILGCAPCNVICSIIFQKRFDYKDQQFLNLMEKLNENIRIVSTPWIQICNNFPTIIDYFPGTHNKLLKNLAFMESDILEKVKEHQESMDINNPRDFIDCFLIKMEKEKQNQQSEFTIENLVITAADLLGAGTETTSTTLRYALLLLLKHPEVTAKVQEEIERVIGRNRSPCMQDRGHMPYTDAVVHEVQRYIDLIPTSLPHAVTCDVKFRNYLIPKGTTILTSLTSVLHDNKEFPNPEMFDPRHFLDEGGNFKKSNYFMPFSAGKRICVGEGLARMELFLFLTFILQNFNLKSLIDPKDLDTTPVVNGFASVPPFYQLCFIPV
Procedure: Ammoxetine (final concentration 5 μmol/L) was incubated with recombinant human CYP 3A4, CYP 1A2, CYP 2C9, CYP 2C19, and CYP 2D6 (final concentration 25 pmol/mL) in a 5 mmol/L K2HPO4 buffer at pH 7.4. The incubations were performed in quintuplicate. NADPH (final concentration 1 mmol/L) was added to initiate the incubation process. The mixture was then incubated at 37°C for 1 h. To stop the reaction, 200 μL of ice-cold acetonitrile/methanol (1:1, v/v) containing 500 ng/mL of L-phencynonate (IS) was added. The samples were vortexed for 2 min and centrifuged at 13,800×g and 4°C for 10 min. The supernatants obtained were analyzed using an LC-MS-MS method. To establish appropriate controls, zero-time controls and blank controls in the absence of NADPH were set up in parallel.

[2] = Stability of ammoxetine in rat plasma (method validation); assay type: in vitro ADME
Procedure: LC-MS-MS methods were developed and validated to accurately quantify ammoxetine in rat and beagle dog plasma, as well as in rat tissues, urine, feces, and bile. The methods involved direct protein precipitation using methanol, providing a straightforward and rapid sample preparation process with high extraction recovery rates (absolute recoveries >85% in all matrices). […] The precision and accuracy of the plasma methods were evaluated through intra-day and inter-day analyses, yielding satisfactory results. Additionally, stability tests conducted in rat and beagle dog plasma met the analytical requirements for determination. Furthermore, the majority of the analytes met the necessary criteria for matrix effects when quantifying ammoxetine in biological samples. The developed methods are well-suited for determining ammoxetine concentrations in rat and beagle dog biological samples, enabling in vivo studies of this compound. They provide specific and highly sensitive quantification, facilitating investigations into the drug’s behavior in vivo. Detailed results regarding the establishment and validation of these analytical methods can be found in Supplementary Data Sheet 2.

HLM = test: Hepatic microsome stability assay, HLM; assay type: in vitro ADME, human; conditions: predicted hepatic clearance
Procedure: (§2) A hepatic microsome stability assay was conducted to investigate the metabolic disposition of ammoxetine. In this assay, 100 μL of ammoxetine (2.5 μmol/L) was incubated at 37°C with 100 μL of liver microsomes (RLM, DLM, MLM, or HLM) formulated in a 5 mmol/L dipotassium hydrogen phosphate (K2HPO4) buffer at pH 7.4. The concentration of microsomes was 0.5 g/L. To initiate the incubations, 50 μL of NADPH solution preincubated at 37°C was added. […] Parallel triplicate samples were prepared for each time point, including 0, 2, 5, 10, 15, 30, 60, 90, and 120 min. To stop the reactions at each time point, 250 μL of ice-cold precipitating agent (acetonitrile/methanol, 1:1, v/v) containing 500 ng/mL of L-phencynonate (IS) was added to the incubation mixture. The samples were vortexed for 2 min at 4°C and then centrifuged at 13,800×g for 10 min. The supernatants were analyzed using an LC-MS-MS approach. […]
(§3) In Formula 3, t1/2 (min) represents the half-life of ammoxetine in liver microsomes. It is calculated by dividing −0.693 by the resulting slope (k e) obtained from a natural logarithm plot of the remaining concentration of ammoxetine against incubation time. […]

[3] = Hepatic microsome stability assay, HLM; assay type: in vitro ADME, human; conditions: human, liver microsomes, pH 7.4; 1 μmol/L, 0.2 g/L microsomes, NADPH
Procedure: as §2, §3

[4] = PPB assay by ultrafiltration, dog plasma; assay type: in vitro ADME, beagle dogs; conditions: beagle
Procedure: as §1

[5] = 50 ng/mL, read-out: Percentage of ammoxetine-protein binding rate (%) (converted)
[6] = 150 ng/mL, read-out: Percentage of ammoxetine-protein binding rate (%) (converted)
[7] = 450 ng/mL, read-out: Percentage of ammoxetine-protein binding rate (%) (converted)
[8] = approximate range over 50-450 ng/mL, read-out: PPB rate

CNCC[C@H](Oc1cccc2c1OCO2)c1cccs1 [ammoxetine]
fraction unbound at 1 h, 50 ng/mL [1, 5]: 0.338 | fraction unbound at 1 h, 150 ng/mL [1, 6]: 0.447 | fraction unbound at 1 h, 450 ng/mL [1, 7]: 0.506 | fraction unbound at 1 h [1, 8]: 0.4 to 0.5 | Transformation ratio% (CYP 2C19): 26.27±1.85% and 26.27% | residuary concentration of ammoxetine, Mean±SD (CYP 2C19): 5.05±0.13 | Stability in rat plasma, Measured (%) ([2]; 5 ng/mL, -30℃ for 15d): 106.00±2.00% | Stability in rat plasma, Measured (%) ([2]; 5 ng/mL, in auto-sampler for 24h): 114.00±10.00% | Stability in rat plasma, Measured (%) ([2]; 5 ng/mL, room temperature for 4h): 94.00±6.00% | Stability in rat plasma, Measured (%) ([2]; 100 ng/mL, -30℃ for 15d): 105.90±8.30% | Stability in rat plasma, Measured (%) ([2]; 100 ng/mL, in auto-sampler for 24h): 111.20±5.90% | Stability in rat plasma, Measured (%) ([2]; 100 ng/mL, room temperature for 4h): 108.90±7.40% | Stability in rat plasma, Measured (%) ([2]; 800 ng/mL, -30℃ for 15d): 111.74±2.73% | Stability in rat plasma, Measured (%) ([2]; 800 ng/mL, in auto-sampler for 24h): 106.49±0.78% | Stability in rat plasma, Measured (%) ([2]; 800 ng/mL, room temperature for 4h): 114.33±0.73% | CL h (HLM): 0.543 ± 0.0078 L/h/kg | half-life at 1 μmol/L [3]: 4.16 ± 0.101 h | fraction unbound at 1 h, 50 ng/mL [4, 5]: 0.464 | fraction unbound at 1 h, 150 ng/mL [4, 6]: 0.468 | fraction unbound at 1 h, 450 ng/mL [4, 7]: 0.423 | fraction unbound at 1 h [4, 8]: 0.4 to 0.5
